Laboratory results as given in EPA's ToxValDB 9.5 (doi:10.2903/j.efsa.2020.5986).

What was measured:
Apis mellifera = settings: acute, mortality
Colinus virginianus = settings: oral
Danio rerio = settings: subchronic; duration: 30 days; growth
Daphnia magna = settings: chronic/long-term; duration: 21 days; reproduction
Hypoaspis aculeifer = settings: acute; duration: 14 days; mortality
Oncorhynchus mykiss = settings: acute; duration: 96 hours; mortality
Rattus norvegicus = settings: acute; oral; mortality
Tagia sp. = settings: chronic/long-term; mortality

With `CC(C)=CCC/C(C)=C/CC/C(C)=C/CO` [Farnesol] the LD50 (Apis mellifera; dermal) was greater than 100 µg/piece, the LD50 (Apis mellifera; oral, unspecified) was greater than 100 µg/piece and the LD50 (Colinus virginianus; acute, mortality) was greater than 2000 mg/kg-day. It also gave an NOEC (Colinus virginianus; reproduction developmental, diet) of no less than 111 mg/kg-day, an NOEC (Danio rerio) of no less than 0.138 mg/L and an NOEC (Daphnia magna) of 3 mg/L. It also gave an NOEC (Hypoaspis aculeifer) of 1000 mg/kg, an LC50 (Oncorhynchus mykiss) greater than 0.134 µg/mL and an LC50 (Rattus norvegicus) greater than 2000 mg/kg-day. It also gave an NOEC (Tagia sp.) of no less than 1000 mg/kg.
